For the experiment, the system named is metastatic NSCLC (patients with lung adenocarcinoma or large-cell carcinoma). The experiment is described as follows: Customized treatment of metastatic NSCLC according to EGFR mutations and BRCA1 mRNA levels: survival. The following applies: median follow-up of 10 months. Format: in vivo. As for the experimental part:
Background: A study was carried out wherein treatment of metastatic NSCLC was customized according to the presence of EGFR mutations and BRCA1 mRNA levels.
Methods: 93 patients with lung adenocarcinoma or large-cell carcinoma were screened for EGFR Δ746-750 deletion and L858R mutation and BRCA1 mRNA expression. 15 patients with the L858R mutation in the EGFR gene received erlotinib; 78 patients without the L858R mutation in the EGFR gene received chemotherapy according to BRCA1 levels (low: gemcitabine/cisplatin; intermediate: docetaxel/cisplatin; high: docetaxel alone). In addition, Abraxas and RAP80 mRNA expression were examined in 60/78 patients without the L858R mutation. The features of the patients are collected in Tables I and II.

On to gemcitabine/cisplatin, for which the median survival result (32 patients with low BRCA1 levels (received gemcitabine/cisplatin)) is on record as “not reached”.

For the compound `C#Cc1cccc(Nc2ncnc3cc(OCCOC)c(OCCOC)cc23)c1` [erlotinib], the median survival result (11 patients with EGFR mutations (received erlotinib)) is on record as “not reached”.

With `CC(=O)O[C@@]12CO[C@@H]1C[C@H](O)[C@@]1(C)C(=O)[C@H](O)C3=C(C)[C@@H](OC(=O)[C@H](O)[C@@H](NC(=O)OC(C)(C)C)c4ccccc4)C[C@@](O)([C@@H](OC(=O)c4ccccc4)[C@H]21)C3(C)C` [docetaxel], where the note is “12 patients with high BRCA1 levels (received docetaxel alone)”, the median survival was 11 months.

docetaxel/cisplatin registered a median survival (34 patients with intermediate BRCA1 levels (received docetaxel/cisplatin)) of 9 months.
